Reference: ChEMBL document CHEMBL1201862, “PubChem BioAssay data set” (2004)
Active and inactive are the calls of the source.

Legend:
[1] = molecular target: T1, Ubiquitin-conjugating enzyme E2 N (Homo sapiens, UniProt P61088); format: functional;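 further: Dose-response confirmation in a TR-FRET assay detecting UBC13-driven polyubiquitin chain formation, inhibition measured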
T1 sequence (P61088 whole entry): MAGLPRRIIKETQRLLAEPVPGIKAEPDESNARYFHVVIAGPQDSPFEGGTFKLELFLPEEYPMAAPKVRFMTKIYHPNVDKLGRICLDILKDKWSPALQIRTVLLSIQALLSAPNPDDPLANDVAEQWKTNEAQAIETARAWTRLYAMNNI

[2] = NIH-3T3 fibroblast cytotoxicity, dose response, cytotoxicity control, cell-based, fluorescence, Alamar Blue, secondary assay (AID 2327); format: functional;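 further: NIH-3T3 mouse fibroblasts cultured with fluconazole at 8 µg/mL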
[3] = fluconazole-exposed Candida albicans growth modulators – fluorescence, retest, confirmation (AID 2467); format: functional, cell-based
[4] = Luminescence Cell-Based Dose Response HTS to Identify Activators of Luciferase Translation or Activity in H4 […] Cells. [Related pubchem assays: 1829 (Project Summary), 1814 (Primary HTS)]; format: functional
Genome polyprotein = Genome polyprotein (dengue virus type 2, UniProt P29990); assay: flavivirus cap methylation enzyme inhibition – biochemical, confirmation dose response, primary screen (AID 588689); format: functional
Vero = assay: viability of Vero cells under compound – cytotoxicity control for flavivirus capping enzyme inhibitors (AID 588742); format: functional; conditions: Chlorocebus sabaeus
[5] = Luminescence Cell-Based Dose Confirmation HTS to Identify Activators of 5'UTR Stem-Loop Driven Alpha-Synuclein mRNA Translation in H4 Neuroglioblastoma Cells. [Related pubchem assays: 1829 (Project Summary), 1814 (Primary HTS)]; format: functional
[6] = molecular target: T2, RNA-binding protein pos-1 (Caenorhabditis elegans, UniProt G5EF15); assay: disruptors of C. elegans POS-1 RNA interaction – biochemical, fluorescence polarization, dose response (AID 1964);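 further: purified POS-1 fused to maltose binding protein made in E. coli; potency of compounds blocking POS-1 binding to fluorescent RNA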
T2 sequence (G5EF15 whole entry): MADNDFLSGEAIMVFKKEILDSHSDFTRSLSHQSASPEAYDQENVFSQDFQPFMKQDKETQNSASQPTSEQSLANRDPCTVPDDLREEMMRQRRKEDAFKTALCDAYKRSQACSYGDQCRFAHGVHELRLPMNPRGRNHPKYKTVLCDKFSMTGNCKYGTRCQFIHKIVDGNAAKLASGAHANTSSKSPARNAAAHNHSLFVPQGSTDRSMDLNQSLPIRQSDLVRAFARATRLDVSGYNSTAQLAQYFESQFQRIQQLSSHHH

H4 = assay: Luminescence Cell-Based Dose Response HTS to Identify Activators of 5'UTR Stem-Loop Driven Prion Protein mRNA Translation in H4 Neuroglioblastoma Cells. [Related pubchem assays: 1829 (Project Summary), 1814 (Primary HTS)]; format: functional; conditions: Homo sapiens
[7] = molecular target: T3, Zinc finger protein mex-5 (Caenorhabditis elegans, UniProt Q9XUB2); assay: potency of MEX-5 RNA-binding blockers – biochemical, C. elegans, fluorescence polarization, dose response (AID 1960)
T3 sequence (Q9XUB2 whole entry): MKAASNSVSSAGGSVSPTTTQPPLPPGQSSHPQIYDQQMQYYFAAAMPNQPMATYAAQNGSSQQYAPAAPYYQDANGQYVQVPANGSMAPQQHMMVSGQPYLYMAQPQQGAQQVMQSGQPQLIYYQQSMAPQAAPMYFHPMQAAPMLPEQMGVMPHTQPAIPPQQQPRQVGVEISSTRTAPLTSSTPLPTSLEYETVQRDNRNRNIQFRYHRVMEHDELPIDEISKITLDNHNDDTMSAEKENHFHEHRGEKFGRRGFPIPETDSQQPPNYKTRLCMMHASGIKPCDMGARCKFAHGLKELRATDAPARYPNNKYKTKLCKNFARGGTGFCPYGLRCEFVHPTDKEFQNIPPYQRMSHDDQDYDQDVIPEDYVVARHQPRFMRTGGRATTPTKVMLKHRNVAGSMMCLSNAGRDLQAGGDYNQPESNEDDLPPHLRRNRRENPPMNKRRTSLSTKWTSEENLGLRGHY

[8] = molecular target: T4, Short transient receptor potential channel 4 (Mus musculus, UniProt Q9QUQ5); assay: calcium entry via TRPC4 opening agents – cell-based, HEK293 TRPC4/mu-opioid, Fluo-4 calcium, dose response (AID 434937); format: functional
T4 sequence (Q9QUQ5 whole entry): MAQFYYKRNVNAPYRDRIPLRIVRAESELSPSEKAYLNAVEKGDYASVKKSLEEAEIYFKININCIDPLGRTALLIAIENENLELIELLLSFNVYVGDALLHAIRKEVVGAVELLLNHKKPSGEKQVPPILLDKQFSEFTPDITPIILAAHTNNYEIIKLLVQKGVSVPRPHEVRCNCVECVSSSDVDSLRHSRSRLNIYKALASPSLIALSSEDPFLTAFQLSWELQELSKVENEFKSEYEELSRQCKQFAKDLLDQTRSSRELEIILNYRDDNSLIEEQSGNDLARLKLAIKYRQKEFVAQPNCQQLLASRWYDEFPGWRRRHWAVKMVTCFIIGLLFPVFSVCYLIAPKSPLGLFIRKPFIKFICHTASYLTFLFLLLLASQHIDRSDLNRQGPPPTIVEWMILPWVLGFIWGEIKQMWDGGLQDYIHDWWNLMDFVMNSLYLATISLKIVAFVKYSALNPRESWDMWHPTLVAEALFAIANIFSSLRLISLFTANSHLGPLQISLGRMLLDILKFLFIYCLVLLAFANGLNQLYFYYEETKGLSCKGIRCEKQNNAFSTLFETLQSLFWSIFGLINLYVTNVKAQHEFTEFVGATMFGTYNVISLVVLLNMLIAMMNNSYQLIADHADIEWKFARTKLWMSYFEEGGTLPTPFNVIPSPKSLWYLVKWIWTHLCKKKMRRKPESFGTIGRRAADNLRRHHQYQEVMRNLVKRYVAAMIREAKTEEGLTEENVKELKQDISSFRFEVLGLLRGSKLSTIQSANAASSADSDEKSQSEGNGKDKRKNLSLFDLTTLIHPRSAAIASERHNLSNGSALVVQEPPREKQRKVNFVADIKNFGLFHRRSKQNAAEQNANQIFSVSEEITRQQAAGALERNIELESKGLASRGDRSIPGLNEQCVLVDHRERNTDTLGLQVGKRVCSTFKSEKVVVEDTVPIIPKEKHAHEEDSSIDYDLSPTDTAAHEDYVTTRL

[9] = molecular target: T5, Microphthalmia-associated transcription factor (Homo sapiens, UniProt O75030); assay: reducers of TRPM1 reporter luminescence, concentration series – cell-based, SK-MEL-5, cherry-picked, set 3, MITF inhibitor project, dose response (AID 493073); format: functional;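 further: SK-MEL-5 melanoma cells with luciferase driven by the MITF target TRPM1 promoter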
T5 sequence (O75030 whole entry): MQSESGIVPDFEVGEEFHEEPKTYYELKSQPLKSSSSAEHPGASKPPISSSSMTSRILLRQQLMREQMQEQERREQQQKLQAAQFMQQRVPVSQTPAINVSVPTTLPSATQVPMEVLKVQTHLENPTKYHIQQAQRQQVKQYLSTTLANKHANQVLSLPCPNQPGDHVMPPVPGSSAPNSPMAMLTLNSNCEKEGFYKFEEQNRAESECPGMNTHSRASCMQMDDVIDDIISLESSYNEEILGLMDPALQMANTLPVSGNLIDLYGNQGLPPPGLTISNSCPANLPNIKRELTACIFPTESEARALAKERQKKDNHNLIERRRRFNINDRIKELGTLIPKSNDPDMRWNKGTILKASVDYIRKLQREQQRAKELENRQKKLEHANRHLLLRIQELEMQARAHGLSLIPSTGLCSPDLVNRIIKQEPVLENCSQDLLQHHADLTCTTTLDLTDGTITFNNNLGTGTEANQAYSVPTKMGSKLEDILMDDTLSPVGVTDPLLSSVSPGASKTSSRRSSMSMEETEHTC

Protein skinhead-1 = molecular target: T6, Protein skinhead-1 (Caenorhabditis elegans, UniProt P34707); format: functional
T6 sequence (P34707 whole entry): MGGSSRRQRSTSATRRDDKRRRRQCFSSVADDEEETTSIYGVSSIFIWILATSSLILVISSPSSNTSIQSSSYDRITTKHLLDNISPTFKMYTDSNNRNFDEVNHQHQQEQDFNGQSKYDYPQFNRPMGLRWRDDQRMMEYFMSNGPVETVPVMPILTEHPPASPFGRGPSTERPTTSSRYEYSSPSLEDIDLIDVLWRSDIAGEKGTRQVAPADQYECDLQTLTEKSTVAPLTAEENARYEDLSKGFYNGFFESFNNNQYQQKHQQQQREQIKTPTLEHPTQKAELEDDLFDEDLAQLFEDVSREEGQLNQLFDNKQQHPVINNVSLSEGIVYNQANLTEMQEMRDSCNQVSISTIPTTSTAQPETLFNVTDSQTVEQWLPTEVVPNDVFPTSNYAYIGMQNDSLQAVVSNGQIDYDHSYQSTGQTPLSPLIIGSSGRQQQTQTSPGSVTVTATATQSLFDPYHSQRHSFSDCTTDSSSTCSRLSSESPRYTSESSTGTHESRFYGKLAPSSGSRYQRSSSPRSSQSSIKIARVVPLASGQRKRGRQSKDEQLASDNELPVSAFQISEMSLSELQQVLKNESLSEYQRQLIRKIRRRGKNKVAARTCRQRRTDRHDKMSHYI

Genome polyprotein, sequence (P29990 2492-3391 limits assumed): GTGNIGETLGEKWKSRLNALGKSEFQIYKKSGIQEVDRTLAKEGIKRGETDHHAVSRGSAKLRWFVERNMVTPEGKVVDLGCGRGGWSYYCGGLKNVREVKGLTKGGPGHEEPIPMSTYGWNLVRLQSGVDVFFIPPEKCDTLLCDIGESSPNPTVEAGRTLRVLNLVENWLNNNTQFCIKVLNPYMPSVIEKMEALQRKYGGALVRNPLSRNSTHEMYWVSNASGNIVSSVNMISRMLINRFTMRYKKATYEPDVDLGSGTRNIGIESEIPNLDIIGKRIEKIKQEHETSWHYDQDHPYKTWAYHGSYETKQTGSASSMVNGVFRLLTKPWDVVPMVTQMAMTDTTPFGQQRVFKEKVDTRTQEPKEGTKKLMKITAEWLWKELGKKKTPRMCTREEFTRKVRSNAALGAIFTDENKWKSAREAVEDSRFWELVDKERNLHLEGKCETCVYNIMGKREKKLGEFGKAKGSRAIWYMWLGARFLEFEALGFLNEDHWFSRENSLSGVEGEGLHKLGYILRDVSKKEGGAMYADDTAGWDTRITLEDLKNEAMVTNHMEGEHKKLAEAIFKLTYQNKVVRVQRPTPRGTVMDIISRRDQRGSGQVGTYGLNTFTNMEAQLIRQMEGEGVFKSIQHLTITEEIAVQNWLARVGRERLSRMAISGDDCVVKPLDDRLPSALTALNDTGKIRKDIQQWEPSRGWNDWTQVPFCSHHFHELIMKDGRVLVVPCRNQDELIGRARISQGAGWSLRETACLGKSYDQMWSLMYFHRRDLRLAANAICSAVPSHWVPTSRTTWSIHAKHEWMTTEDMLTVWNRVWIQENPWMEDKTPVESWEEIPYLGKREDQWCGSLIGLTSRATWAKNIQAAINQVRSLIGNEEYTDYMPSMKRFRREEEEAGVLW

CCCC(C(=O)NC(C)(C)C)N(Cc1ccccc1Cl)C(=O)c1snc(C(N)=O)c1N (stereo not drawn)
IC50 [1]: > 20 µM (inactive)

Cc1ccc(NS(=O)(=O)c2ccc(CCC(=O)NCCO)cc2)cc1
EC50 [2]: > 150 µM (inactive) | EC50 [3]: > 38 µM (not active)

CCC(C)/C=C(C)/C=C/C1=CC2=C(Cl)C(=O)C(C)(OC(C)=O)C(=O)C2=CO1 (stereo not drawn)
EC50 [4]: > 120 µM (not active) | IC50 (Genome polyprotein): 38 µM (active) | CC50 (Vero): > 40 µM (active) | EC50 [5]: > 120 µM (not active) | EC50 [6]: > 300 µM (not active) | EC50 (H4): > 120 µM (not active) | EC50 [7]: > 300 µM (not active)

COc1cc(C(=O)Nc2cccc(S(=O)(=O)N3CCCC3)c2)cc(OC)c1C
IC50 [1]: > 20 µM (inactive)

NC(=O)C1CCCN(CC(O)COCc2ccc(Cl)cc2)C1 (stereo not drawn)
EC50 [8]: 0.211 µM (active)

O=C(COc1cc(Cl)c(Cl)cc1Cl)NCCc1ccccn1
EC50 [8]: 10.6 µM (active)

Cc1ccc(C2CC(C(F)(F)F)n3nc(C(=O)NCc4c(C)nn(C)c4C)c(Cl)c3N2)cc1 (stereo not drawn)
AC50 [9]: 8.89 µM (active) | IC50 (Protein skinhead-1): > 100 µM (inactive)

Cc1ccc(C)c(SCC(=O)Nc2nnc(-c3ccccc3)o2)c1
EC50 [2]: > 150 µM (inactive) | EC50 [3]: 2.1 µM (active)

Cc1ccccc1Cn1c(CN2CCc3ccccc3C2)nc2c1c(=O)n(C)c(=O)n2C
EC50 [8]: 5.96 µM (active)
